Experimental data taken from PubChem BioAssay (NCI).
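Compound exposure: 48 hours, 5 concentrations, 96-well plates. At the TGI there is no net growth.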

Assays:
Experiment in all cases: growth of human tumour cells (NCI), 48 h
[1] = test system: SF-539 CNS
[2] = test system: M14 melanoma
[3] = test system: CAKI-1 renal
[4] = test system: LOX IMVI melanoma
[5] = test system: HL-60(TB) leukemia
[6] = test system: M19-MEL melanoma
[7] = test system: DMS 273 small cell lung
[8] = test system: NCI-H226 lung
[9] = test system: HCT-116 colon
[10] = test system: SNB-78 CNS
[11] = test system: UO-31 renal
[12] = test system: U251 CNS
[13] = test system: SK-MEL-5 melanoma
[14] = test system: SN12C renal
[15] = test system: OVCAR-4 ovarian
[16] = test system: A549 NSCLC
[17] = test system: SNB-19 CNS
[18] = test system: HOP-18 NSCLC
[19] = test system: OVCAR-3 ovarian
[20] = test system: OVCAR-5 ovarian
[21] = test system: EKVX NSCLC
[22] = test system: IGROV1 ovarian
[23] = test system: K-562 leukemia
[24] = test system: HCT-15 colon
[25] = test system: DMS 114 small cell lung
[26] = test system: SK-MEL-28 melanoma
[27] = test system: MALME-3M melanoma
[28] = test system: A498 renal
[29] = test system: NCI-H460 lung
[30] = test system: SR leukemia
[31] = test system: KM20L2 colon
[32] = test system: LXFL 529 NSCLC
[33] = test system: HOP-62 NSCLC
[34] = test system: SK-MEL-2 melanoma
[35] = test system: DLD-1 colon
[36] = test system: HOP-92 NSCLC
[37] = test system: NCI-H23 lung
[38] = test system: MOLT-4 leukemia
[39] = test system: HT29 colon
[40] = test system: ACHN renal
[41] = test system: UACC-62 melanoma
[42] = test system: SF-295 CNS
[43] = test system: UACC-257 melanoma
[44] = test system: SK-OV-3 ovarian
[45] = test system: SNB-75 CNS
[46] = test system: COLO 205 colon
[47] = test system: CCRF-CEM leukemia
[48] = test system: HCC-2998 colon
[49] = test system: 786-0 renal
[50] = test system: RXF 393 renal
[51] = test system: OVCAR-8 ovarian
[52] = test system: SW-620 colon
[53] = test system: KM12 colon
[54] = test system: NCI-H522 lung
[55] = test system: SF-268 CNS
[56] = test system: TK-10 renal
[57] = test system: MCF7 breast
[58] = test system: DU-145 prostate
[59] = test system: T-47D breast
[60] = test system: PC-3 prostate
[61] = test system: NCI/ADR-RES ovarian
[62] = test system: XF 498 CNS
[63] = test system: BT-549 breast
[64] = test system: HS 578T breast
[65] = test system: MDA-MB-435
[66] = test system: MDA-N
[67] = test system: MDA-MB-231 breast
[68] = test system: RPMI-8226 leukemia

For `CC1=NS(=O)(=O)c2ccccc2N1`, the TGI [1] was > 100 µM, the TGI [2] was > 100 µM and the TGI [3] was > 100 µM. The TGI [4] was > 100 µM, the TGI [5] was > 100 µM and the TGI [6] was > 100 µM. The TGI [7] was > 100 µM, the TGI [8] was > 100 µM and the TGI [9] was > 100 µM. The TGI [10] was > 100 µM, the TGI [11] was > 100 µM and the TGI [12] was > 100 µM. For the same compound, the TGI [13] was > 100 µM, the TGI [14] was > 100 µM and the TGI [15] was > 100 µM. For the same compound, the TGI [16] was > 100 µM, the TGI [17] was > 100 µM and the TGI [18] was > 100 µM. The TGI [19] was > 100 µM, the TGI [20] was > 100 µM and the TGI [21] was > 100 µM. For the same compound, the TGI [22] was > 100 µM, the TGI [23] was > 100 µM and the TGI [24] was > 100 µM. For the same compound, the TGI [25] was > 100 µM, the TGI [26] was > 100 µM and the TGI [27] was > 100 µM. The TGI [28] was > 100 µM, the TGI [29] was > 100 µM and the TGI [30] was > 100 µM. For the same compound, the TGI [31] was > 100000 nM, the TGI [32] was > 100000 nM and the TGI [33] was > 100 µM. For the same compound, the TGI [34] was > 100 µM, the TGI [35] was > 100 µM and the TGI [36] was > 100 µM. For the same compound, the TGI [37] was > 100 µM, the TGI [38] was > 100 µM and the TGI [39] was > 100 µM. The TGI [40] was > 100 µM, the TGI [41] was > 100 µM and the TGI [42] was > 100 µM. For the same compound, the TGI [43] was > 100 µM, the TGI [44] was > 100 µM and the TGI [45] was > 100 µM. The TGI [46] was > 100 µM, the TGI [47] was > 100 µM and the TGI [48] was > 100 µM. The TGI [49] was > 100 µM, the TGI [50] was > 100 µM and the TGI [51] was > 100 µM. For the same compound, the TGI [52] was > 100 µM, the TGI [53] was > 100 µM and the TGI [54] was > 100 µM. The TGI [55] was > 100 µM and the TGI [56] was > 100 µM.

`OCc1ccc(-c2ccc(-c3ccc(CO)s3)o2)s1` was tested, and the TGI [1] was > 85.8 µM, the TGI [2] was > 84.3 µM and the TGI [3] was 0.061 µM. For the same compound, the TGI [4] was 79.7 µM, the TGI [5] was 38.2 µM and the TGI [6] was > 100 µM. For the same compound, the TGI [7] was > 49.5 µM, the TGI [8] was 0.145 µM and the TGI [9] was 45.2 µM. The TGI [11] was > 84.7 µM, the TGI [12] was 23.4 µM and the TGI [13] was 69.7 µM. It also gave a TGI [14] of 81 µM, a TGI [15] of 2.76 µM and a TGI [16] of 48.1 µM. The TGI [57] was 2.59 µM, the TGI [58] was 66.5 µM and the TGI [17] was > 100 µM. It also gave a TGI [18] of 32.6 µM, a TGI [59] of 7.59 µM and a TGI [19] of 0.791 µM. The TGI [20] was 0.102 µM, the TGI [60] was > 100 µM and the TGI [21] was > 96.4 µM. It also gave a TGI [22] of 0.676 µM, a TGI [23] of 38.3 µM and a TGI [24] of 81 µM. The TGI [25] was > 100 µM, the TGI [26] was > 91.9 µM and the TGI [61] was 71.5 µM. The TGI [27] was > 88.8 µM, the TGI [28] was 0.0278 µM and the TGI [29] was 2.89 µM. For the same compound, the TGI [62] was 356 nM, the TGI [30] was 61.1 µM and the TGI [31] was 1190 nM. The TGI [32] was 43.5 nM, the TGI [63] was 50.7 µM and the TGI [33] was 17.2 µM. The TGI [34] was 89.2 µM, the TGI [35] was > 73.4 µM and the TGI [36] was 91.2 µM. For the same compound, the TGI [37] was > 90.9 µM, the TGI [38] was 71.5 µM and the TGI [64] was 86.6 µM. The TGI [39] was > 95 µM, the TGI [40] was > 94.1 µM and the TGI [41] was 0.154 µM. The TGI [42] was 74.1 µM, the TGI [65] was 17.3 µM and the TGI [43] was 0.0669 µM. For the same compound, the TGI [44] was 39.2 µM, the TGI [45] was 80.3 µM and the TGI [66] was 39.6 µM. For the same compound, the TGI [46] was 3.01 µM, the TGI [47] was 72.2 µM and the TGI [48] was 4.02 µM. The TGI [67] was > 92.2 µM, the TGI [49] was > 85.8 µM and the TGI [50] was 1.77 µM. For the same compound, the TGI [51] was 61.4 µM, the TGI [52] was > 100 µM and the TGI [53] was 85.3 µM. For the same compound, the TGI [54] was > 100 µM, the TGI [55] was > 97.1 µM and the TGI [68] was 62.3 µM. The TGI [56] was 0.171 µM.

Compound `COC1=CC(=O)C(C2CC(=O)c3c(O)cc(O)cc3O2)=CC1=O` (configuration not stated) has a TGI [1] of 39.5 µM, a TGI [2] of 35.1 µM and a TGI [3] of 33.1 µM. The TGI [4] was 30.9 µM, the TGI [5] was > 21.3 µM and the TGI [8] was 40.4 µM. For the same compound, the TGI [9] was 32.9 µM, the TGI [11] was 32.2 µM and the TGI [12] was 37.1 µM. It also gave a TGI [13] of 31.7 µM, a TGI [14] of 37.4 µM and a TGI [15] of 36.5 µM. For the same compound, the TGI [16] was > 72.6 µM, the TGI [57] was 42.3 µM and the TGI [58] was 35.3 µM. The TGI [17] was 68.2 µM, the TGI [59] was 42.7 µM and the TGI [19] was 39.9 µM. It also gave a TGI [20] of 41.4 µM, a TGI [60] of 31.1 µM and a TGI [21] of 30.8 µM. It also gave a TGI [22] of 33.6 µM, a TGI [23] of 40.8 µM and a TGI [24] of 55.3 µM. The TGI [26] was 31.4 µM, the TGI [61] was 46.5 µM and the TGI [27] was 34.8 µM. For the same compound, the TGI [28] was > 58 µM, the TGI [29] was 51.8 µM and the TGI [30] was 15.6 µM. For the same compound, the TGI [63] was 42.9 µM, the TGI [33] was 34.8 µM and the TGI [34] was 34.4 µM. The TGI [36] was 17.6 µM, the TGI [37] was 40.5 µM and the TGI [38] was 5.12 µM. For the same compound, the TGI [64] was 83 µM, the TGI [39] was > 61.3 µM and the TGI [40] was 29.7 µM. The TGI [41] was 31.3 µM, the TGI [42] was 35.1 µM and the TGI [65] was 31.6 µM. The TGI [43] was 34.9 µM, the TGI [44] was > 93.9 µM and the TGI [45] was 39.7 µM. It also gave a TGI [66] of 29.7 µM, a TGI [46] of 32.3 µM and a TGI [47] of 2.42 µM. It also gave a TGI [48] of 32.1 µM, a TGI [67] of 29.1 µM and a TGI [49] of 31.7 µM. It also gave a TGI [50] of 34.8 µM, a TGI [51] of 59.7 µM and a TGI [52] of 44.4 µM. For the same compound, the TGI [53] was 32.2 µM, the TGI [54] was 30.8 µM and the TGI [55] was 38.7 µM. The TGI [68] was > 100 µM and the TGI [56] was 31.8 µM.
